PubChem BioAssay (NCI)
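Results reflect a 48-hour exposure of cells in 96-well plates to compound at five concentrations. GI50 marks 50% less growth. TGI: total growth inhibition.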

What was measured:
Assay in all cases: NCI anticancer screen, dose series, 48 h
HS 578T breast = system: HS 578T breast
RXF 393 renal = system: RXF 393 renal
CAKI-1 renal = system: CAKI-1 renal
HT29 colon = system: HT29 colon
U251 CNS = system: U251 CNS
SF-295 CNS = system: SF-295 CNS
EKVX NSCLC = system: EKVX NSCLC
IGROV1 ovarian = system: IGROV1 ovarian
HCT-116 colon = system: HCT-116 colon
LOX IMVI melanoma = system: LOX IMVI melanoma

SMILES	GI50 (HS 578T breast)	TGI (HS 578T breast) [µM]	GI50 (RXF 393 renal) [µM]	TGI (RXF 393 renal) [µM]	GI50 (CAKI-1 renal) [µM]	TGI (CAKI-1 renal) [µM]	GI50 (HT29 colon) [µM]	TGI (HT29 colon) [µM]	GI50 (U251 CNS)	TGI (U251 CNS) [µM]	GI50 (SF-295 CNS)	TGI (SF-295 CNS) [µM]	GI50 (EKVX NSCLC)	TGI (EKVX NSCLC)	GI50 (IGROV1 ovarian)	TGI (IGROV1 ovarian) [µM]	GI50 (HCT-116 colon)	TGI (HCT-116 colon) [µM]	GI50 (LOX IMVI melanoma)	TGI (LOX IMVI melanoma) [µM]
O=C(NO)c1ccc(CN(c2cnccn2)c2cnccn2)cc1	23.3 µM	96.8	11.5	25.1	12.7	40.1	15.4	38	7.74 µM	21.4	14.8 µM	33.4	15.9 µM	36.7 µM	15.6 µM	35.2	6.04 µM	28.9	3.69 µM	18.1
COc1ccc(Cc2cnc(NC(=O)c3ccc4c(c3)OCCO4)s2)cc1	0.0311 µM	> 76	–	–	< 0.0123	15.6	0.0418	> 55.4	0.0388 µM	> 85.8	0.0242 µM	20.8	0.0596 µM	> 100 µM	0.0485 µM	> 55.2	0.032 µM	> 38.8	0.0456 µM	> 100
Clc1ccc(N=CNc2ccc(-c3nc4ccccc4o3)cc2)cc1	1.89 µM	28	25.8	80.6	15.5	39.2	–	–	23.4 µM	91.3	19.4 µM	45.9	0.241 µM	2.84 µM	84.2 µM	> 100	> 100 µM	> 100	12.5 µM	25.8
Nc1nc(N)c2cc(CNc3ccc(C(=O)NC(CC(=O)O)C(=O)O)c(Cl)c3)ccc2n1 (configuration not stated)	–	> 500	> 500	> 500	0.05	> 500	0.05	> 500	–	–	0.05 µM	> 500	> 500 µM	> 500 µM	223 µM	> 500	0.05 µM	> 500	0.05 µM	> 500
Cc1cc(C)n(-c2nnc3n2N=C(c2ccc(-c4ccccc4)cc2)CS3)n1	2.76 µM	> 100	2.08	6.51	3.05	> 100	3.11	12.1	3.4 µM	> 100	2.64 µM	7.63	–	–	4.81 µM	> 100	3.39 µM	> 100	3.36 µM	> 100
Clc1cc(Cl)cc(Nc2ccc3cc(OCCCN4CCOCC4)ccc3n2)c1	1.99 µM	5.43	1.51	3.6	–	–	1.56	3.74	–	–	1.66 µM	3.65	3.39 µM	> 100 µM	3.47 µM	> 100	–	–	1.62 µM	3.05
O=C1CSC(c2ccc(-c3nc4ccccc4s3)cc2)=N1	20.2 µM	59.7	28.9	> 100	17.4	> 100	–	–	28 µM	> 100	20.9 µM	> 100	1.81 µM	13.5 µM	50.5 µM	> 100	24.7 µM	> 100	7.48 µM	26.9
O=C1C(Cl)=C(Nc2ccccc2O)C(=O)N1Cc1ccccc1	17.3 µM	38.1	12.5	30.7	26	68.7	–	–	19.2 µM	36.5	26.2 µM	52.9	–	–	29.7 µM	> 100	19.6 µM	33.7	16.5 µM	30.1
O=C(OCC(OC(=O)c1ccccc1)C(OC(=O)c1ccccc1)C(OC(=O)c1ccccc1)c1cnn(-c2ccccc2)n1)c1ccccc1 (configuration not stated)	–	> 100	–	> 100	–	> 100	–	> 100	–	–	–	> 100	–	> 100 µM	–	> 100	–	> 100	–	> 100
O=C(N/N=C/c1c(Cl)cccc1Cl)c1ccc(C(F)(F)F)nc1Nc1cccc(C(F)(F)F)c1	1.75 µM	18	–	–	1.03	13.8	1.24	> 100	0.588 µM	12.8	1.16 µM	> 29.2	0.886 µM	> 27.9 µM	1.01 µM	13.9	0.461 µM	38.8	0.677 µM	11.5
C=CCN1CC2CON(C(=O)C(OC)(c3ccccc3)C(F)(F)F)C2C1C(C)C (configuration not stated)	37.4 µg/mL	–	–	–	–	–	–	–	29.8 µg/mL	–	35.7 µg/mL	–	33.6 µg/mL	99.1 µg/mL	56.9 µg/mL	–	24.2 µg/mL	–	26.6 µg/mL	–
C[C@H]1CCC/C=C/[C@@H]2C[C@H](O)C[C@H]2[C@H](O)[C@@H](SCC(O)CO)CC(=O)O1 (some centres not stated)	9.52 µM	> 100	4.42	20.1	31.7	67.6	10.2	40.8	42.3 µM	> 100	43.8 µM	> 100	27.7 µM	> 100 µM	37.2 µM	> 100	35.5 µM	> 100	–	–
